Laboratory results taken from patent publication US7615574B2, “Synergistic composition for treating leukemia” (Council of Scientific and Industrial Research, priority 2002, dated 2009).
Read-outs that look alike come from different tables or passages of the source.

How the values were obtained:
[1] = test system: CML patient's PBMC; assay: Incubation of CML patient's PBMC with CA, viable cell count (growth inhibition); type: cell-based, human; settings: PBMC / leukemic cells of CML patient
Method: Whole blood (10 ml each) was drawn from previously diagnosed myeloid leukemic patients, one patient was diagnosed as AML and the other one was diagnosed as CML. Mononuclear cells were separated by Ficoll/hypaque density gradient centrifugation. PBMC (1×10^5-2×10^6/ml) of myeloid leukemia patients were incubated with varied concentrations of CA for 48 hours at 37° C. in 5% CO2. Cells were then washed and counted for viability.

[2] = test system: CML Patient's Leukemic cells; assay: CA, PCQ and combination: growth inhibition of CML patient's leukemic cells (2×10^6 cells per ml per well); type: cell-based, human; settings: for percentage growth inhibition of CML's leukemic cells: concentration not given
[3] = test system: Molt 4 (T lymphoid Cell line); assay: Growth inhibition of T lymphoid cell line Molt 4 by CA in vitro; type: cell-based; settings: Homo sapiens, 1 × 10^5 cells per ml per well, read-out: Percentage Inhibition of Cell Growth; for inhibition at 50 µg/mL: CA 50.0 μg/ml; for inhibition at 100 µg/mL: CA 100.0 μg/ml; for inhibition at 200 µg/mL: CA 200.0 μg/ml
Source text: Culture of T-Lymphoid cell line Molt-4. This cell line was obtained from American Type culture collection (ATCC), VA, USA and grown in vitro as described for the cell line K562.

[4] = test system: U937 Promonocyte cell line; assay: CA, PCQ and combination: growth inhibition of U937 (2×10^6 cells per ml per well); type: cell-based, human; settings: for percentage growth inhibition of promonocyte cells: concentration not given
[5] = test system: leukemia cells; assay: Biological activity of Piper betel HPLC zones and peaks: destruction of leukemic cells; type: cell-based; settings: HPLC zones and peaks of Fraction E of Piper betel leaf extract
Source text: Collected material was examined for biological activity i.e. destruction of leukemic cells. […] 10 gm of above-mentioned material was loaded on Sephadex LH-20 column and chromatographed with water, water-methanol (1:1) and methanol as eluent. Three different fractions thus obtained from three different solvent systems were separately checked for biological activity. The activity was located only on
Fraction 2 i.e. Methanol-water (1:1) and termed as fraction E. Fraction E was then subjected to HPLC analysis using Intersil ODS-3 analytical column. The column was equilibrated with methanol-water-acetic acid (23:76:1), flow rate was maintained at 1.0 ml per min and peaks were identified at 280 nm. According to the retention time (RE) different peaks could be divided into three zones, ZA, ZB and ZC (FIG. 1). ZA had 4 major peaks whereas ZB had very small to moderate 10 peaks and ZC had two distinct peaks. It was convenient to observe biological activity of three zones AA, ZB and ZC, which were separately tested on leukemia cells for destructive activity.
The Zone ZB contained 10 peaks (1 to 10) of varied sizes. […] For this reason all different peaks were separately monitored for biological activity. […] On searching for activity of these peaks i.e. 1,5,6,7,9 and 10 corresponding to Rt 5.16, 8.34, 9.16, 9.86, 13.94 and 14.68 respectively. […]

[6] = test system: K 562 Erythroleukemia cell line; assay: CA, PCQ and combination: growth inhibition of K562 (2×10^6 cells per ml per well); type: cell-based, human; settings: for percentage growth inhibition of Erythroleukemia cells: concentration not given
[7] = test system: CML Patient's Leukemic cells; assay: Analysis of cell cycle progression and apoptosis by Flow cytometry (propidium iodide); type: cell-based, human; settings: 100.0 μg/ml; two days of culture
Method: Analysis of cell cycle progression and apoptosis by Flow cytometry PBMC of a CML patient was cultured in RPMI-1640 medium supplemented with 10% […] fetal bovine serum in the presence or absence of CA (100.0 μg/ml) for 48 hr. at 37° C. in 5% CO2. Cells were fixed with 40% ethanol treated with 500 μg/ml Rnase A, and then with 69 μM propidium iodide for analysis of DNA content by Flow Cytometry as described (Mitra et al., Molecular Medicine, 6:527-541, 2000).

[8] = test system: Normal individual's PBMC; assay: CA, PCQ and combination: growth inhibition of normal individual's PBMC (2×10^6 cells per ml per well); type: cell-based, human
Source text: Preparation of peripheral blood mononuclear cells (PBMC) from normal individuals. Whole blood was collected and mononuclear cells were separated by Ficoll/Hypaque density gradient centrifugation.
The number of cells used was 2×10^6 per ml per well.

## O=C(/C=C/c1ccc(O)c(O)c1)O[C@@H]1C[C@](O)(C(=O)O)C[C@@H](O)[C@H]1O (single isomer, unassigned) [CA, Chlorogenic acid]
[1]
  destruction of cells (in words): destroyed
[2]; Homo sapiens, 24 h, CML patient's leukemic cells, single compound 25.0 μg/ml, 1 day, 2×10^6 cells per ml per well, read-out: % Inhibition of cell growth (After 1 day of incubation)
  inhibition at 25 µg/mL: ≤ 2.38%
[2]; Homo sapiens, 24 h, CML patient's leukemic cells, single compound 50.0 μg/ml, 1 day, 2×10^6 cells per ml per well, read-out: % Inhibition of cell growth (After 1 day of incubation)
  inhibition at 50 µg/mL: 4.67%
[2]
  percentage growth inhibition of CML's leukemic cells: about 5%
[3]; 24 h, 1 day
  inhibition at 50 µg/mL: 3.57%
  inhibition at 100 µg/mL: 6.89%
  inhibition at 200 µg/mL: 13.8%
[3]; 48 h, 2 days
  inhibition at 50 µg/mL: 6.67%
  inhibition at 100 µg/mL: 14.7%
  inhibition at 200 µg/mL: 46.7%
[3]; 72 h, 3 days
  inhibition at 100 µg/mL: 18.8%
[4]; Homo sapiens, U-937, 24 h, U937, single compound 25.0 μg/ml, 1 day, 2×10^6 cells per ml per well, read-out: % Inhibition of cell growth (After 1 day of incubation)
  inhibition at 25 µg/mL: ≤ 16.7%
[4]
  percentage growth inhibition of promonocyte cells: about 25%
[5]
  biological activity i.e. destruction of leukemic cells (in words): detectable activity
[6]
  percentage growth inhibition of Erythroleukemia cells: about 30%
[7]
  apoptosis in CML patients Leukemic cells in vitro (cell-cycle analysis): caused apoptosis

## O=C(C=Cc1ccc(O)cc1)OC1CC(O)(C(=O)O)CC(O)C1O (stereo not shown) [PCQ, 3-o-p-Coumaryl quinic acid]
[2]; CML patient's leukemic cells, single compound 50.0 μg/ml, 1 day, 2×10^6 cells per ml per well
  % Inhibition of cell growth (After 1 day of incubation): 4.67%
[2]
  percentage growth inhibition of CML's leukemic cells: about 5%
[4]; U937, single compound 50.0 μg/ml, 1 day, 2×10^6 cells per ml per well
  % Inhibition of cell growth (After 1 day of incubation): 4.17%
[4]
  percentage growth inhibition of promonocyte cells: about 5%
[5]
  biological activity i.e. destruction of leukemic cells (in words): demonstrated considerable activity
[6]; K 562, single compound 50.0 μg/ml, 1 day, 2×10^6 cells per ml per well
  % Inhibition of cell growth (After 1 day of incubation): 8.00%
[6]
  percentage growth inhibition of Erythroleukemia cells: about 8%
[8]; single compound 25.0 μg/ml
  % Inhibition of cell growth (After 1 day of incubation): 0.00%
[8]; single compound 50.0 μg/ml
  % Inhibition of cell growth (After 1 day of incubation): 1.67%
